Source: patent publication US10233200B2, “Organomodified monosilyl compound, its preparation and applications thereof” (Momentive Performance Materials Inc., priority 2017, dated 2019)

Tests used:
canola leaf = assay: Uptake of [C14]-2,4-D DMA salt into canola leaf; format: in vivo; settings: no adjuvant compound (0 % wt/vol), 2,4-D alone
Protocol: The uptake of [C^14]-2,4-dichlorophenoxyacetic acid, dimethylamine salt (2,4-D DMA salt) (1% a.e./100 L/ha) was determined in canola at 2 HAT and 24 HAT (Hours After Treatment) according to the method described by Lui, in Pro. 18th Asian-Pacific Weed Sci. Soc. Conf., pp. 561-566. Liu, Z Q; 2001.

[1] = Spreading of a 10 μL droplet of surfactant solution on polystyrene Petri dishes; format: physicochemical; settings: 10 μL droplet on polystyrene, after 30 seconds, 22 to 25° C., RH 50-70%
Protocol: Spreading was determined by applying a 10 μL droplet, of surfactant solution to polystyrene Petri dishes (Fisher Scientific) and measuring the spread diameter (mm) after 30 seconds, at a relative humidity between 50 and 70% (at 22 to 25° C.). The solution was applied with an automatic pipette to provide droplets of reproducible volume. Deionized water that was further purified with a Millipore filtration system was used to prepare the surfactant solutions.

## CNC.O=C(O)COc1ccc(Cl)cc1Cl [2,4-D alone, 2,4-dichlorophenoxyacetic acid, dimethylamine salt]
Canola leaf; 2 HAT
  Uptake % (2 HAT): 12.1e %
Canola leaf; 24 HAT
  Uptake % (24 HAT): 70.2 a %

## (H3C)3CCH2CH2—Si(CH3)2—CH2CH2CH2—O—CH2CH(OH)CH2N^+(CH3)2—CH2CH2CH2OH [Ex. 8, (H3C)3CCH2CH2—Si(CH3)2—CH2CH2CH2—O—CH2CH(OH)CH2N^+(CH3)2—CH2CH2CH2OH [(CH2OH)2(CH3)C—COO^−]]
[1]; 0.05 weight % compound
  Spread Diameter: 10 mm
[1]; 0.1 weight % compound
  Spread Diameter: 21 mm
[1]; 0.2 weight % compound
  Spread Diameter: 33 mm
